Data as given in PubChem BioAssay (NCI).
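Dose response: 5 concentrations. Exposure: 48 h. Format: 96-well plates. Endpoint: linear interpolation; highest concentration if not reached. The concentration for full growth arrest is given as TGI.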

Legend:
Test in all cases: growth of human tumour cells (NCI), 48 h
[1] = system: NCI-H226 lung
[2] = system: HL-60(TB) leukemia
[3] = system: MDA-N
[4] = system: SNB-19 CNS
[5] = system: IGROV1 ovarian
[6] = system: UACC-62 melanoma
[7] = system: BT-549 breast
[8] = system: OVCAR-3 ovarian
[9] = system: MOLT-4 leukemia
[10] = system: SF-539 CNS
[11] = system: NCI-H460 lung
[12] = system: SK-OV-3 ovarian
[13] = system: TK-10 renal
[14] = system: RXF 393 renal
[15] = system: NCI/ADR-RES ovarian
[16] = system: 786-0 renal
[17] = system: OVCAR-4 ovarian
[18] = system: K-562 leukemia
[19] = system: LOX IMVI melanoma
[20] = system: RPMI-8226 leukemia

Q: Which TGI [1] does the source give for N#Cc1c(NC(=S)NCc2ccccc2)sc2c1CCN(N1CCc3c(sc(NC(=S)NCc4ccccc4)c3C#N)C1)C2 here?
A: > 100 µM

Q: And the TGI [2]?
A: > 100 µM

Q: And the TGI [3]?
A: > 100 µM

Q: And the TGI [4]?
A: > 100 µM

Q: And the TGI [5]?
A: > 100 µM

Q: What about the TGI [6] of the same compound?
A: > 100 µM

Q: What about the TGI [7] of the same compound?
A: > 100 µM

Q: And the TGI [8]?
A: > 100 µM

Q: And the TGI [9]?
A: > 100 µM

Q: What about the TGI [10] of the same compound?
A: > 100 µM

Q: What about the TGI [11] of the same compound?
A: > 100 µM

Q: What about the TGI [12] of the same compound?
A: > 100 µM

Q: And the TGI [13]?
A: > 100 µM

Q: What about the TGI [14] of the same compound?
A: > 100 µM

Q: And the TGI [15]?
A: > 100 µM

Q: And the TGI [16]?
A: > 100 µM

Q: What about the TGI [17] of the same compound?
A: > 100 µM

Q: And the TGI [18]?
A: > 100 µM

Q: And the TGI [19]?
A: > 100 µM

Q: Which results are given for CC(=O)OC[C@@]12C[C@H]3C(=O)C(C)(C)C[C@H]3[C@]1(C)[C@@H](OC(C)=O)[C@]1(O)[C@H]([C@@H](OC(=O)c3ccccc3)[C@@H](C)[C@H]1OC(C)=O)[C@H]2OC(C)=O?
A: TGI [1]: > 20 µM; TGI [2]: > 20 µM; TGI [3]: > 20 µM; TGI [4]: > 20 µM; TGI [5]: > 20 µM; TGI [6]: > 20 µM; TGI [7]: > 20 µM; TGI [8]: > 20 µM; TGI [9]: > 20 µM; TGI [10]: > 20 µM; TGI [11]: > 20 µM; TGI [12]: > 20 µM; TGI [13]: > 20 µM; TGI [14]: > 20 µM; TGI [15]: > 20 µM; TGI [16]: > 20 µM; TGI [17]: > 20 µM; TGI [18]: > 20 µM; TGI [19]: > 20 µM

Q: How did the TGI [1] turn out when NNC(=O)c1n[nH]nc1SSc1n[nH]nc1C(=O)NN was run?
A: > 100 µM

Q: And the TGI [2]?
A: > 100 µM

Q: What about the TGI [3] of the same compound?
A: > 100 µM

Q: What about the TGI [4] of the same compound?
A: > 100 µM

Q: What about the TGI [5] of the same compound?
A: > 100 µM

Q: And the TGI [6]?
A: > 100 µM

Q: And the TGI [7]?
A: > 100 µM

Q: And the TGI [8]?
A: > 100 µM

Q: And the TGI [9]?
A: > 100 µM

Q: What about the TGI [10] of the same compound?
A: > 100 µM

Q: What about the TGI [11] of the same compound?
A: > 100 µM

Q: What about the TGI [12] of the same compound?
A: > 100 µM

Q: What about the TGI [13] of the same compound?
A: > 100 µM

Q: And the TGI [14]?
A: > 100 µM

Q: And the TGI [15]?
A: > 100 µM

Q: What about the TGI [16] of the same compound?
A: > 100 µM

Q: What about the TGI [17] of the same compound?
A: > 100 µM

Q: And the TGI [19]?
A: > 100 µM

Q: What does the source list for COc1cc2c(cc1OC)CCN=C2?
A: TGI [1]: > 100 µM; TGI [2]: > 100 µM; TGI [3]: > 100 µM; TGI [4]: > 100 µM; TGI [5]: > 100 µM; TGI [6]: > 100 µM; TGI [7]: > 100 µM; TGI [8]: > 100 µM; TGI [9]: > 100 µM; TGI [11]: > 100 µM; TGI [12]: > 100 µM; TGI [13]: > 100 µM; TGI [14]: > 100 µM; TGI [15]: > 100 µM; TGI [17]: > 100 µM; TGI [19]: > 100 µM; TGI [20]: > 100 µM

Q: Which TGI [1] does the source give for O=C(O)CCC1(c2ccccc2)NC(=O)NC1=O (centres undefined) here?
A: > 100 µM

Q: What about the TGI [2] of the same compound?
A: > 100 µM

Q: And the TGI [3]?
A: > 100 µM

Q: What about the TGI [4] of the same compound?
A: > 100 µM

Q: What about the TGI [5] of the same compound?
A: > 100 µM

Q: And the TGI [6]?
A: > 100 µM

Q: And the TGI [7]?
A: > 100 µM

Q: What about the TGI [8] of the same compound?
A: > 100 µM

Q: And the TGI [10]?
A: > 100 µM

Q: And the TGI [11]?
A: > 100 µM

Q: What about the TGI [12] of the same compound?
A: > 100 µM

Q: And the TGI [13]?
A: > 100 µM

Q: What about the TGI [14] of the same compound?
A: > 100 µM

Q: And the TGI [15]?
A: > 100 µM

Q: And the TGI [16]?
A: > 100 µM

Q: And the TGI [17]?
A: > 100 µM

Q: What about the TGI [18] of the same compound?
A: > 100 µM

Q: And the TGI [19]?
A: > 100 µM

Q: What about the TGI [20] of the same compound?
A: > 100 µM

Q: How did the TGI [1] turn out when O=C(C1OC1c1ccc([N+](=O)[O-])cc1)C12CC3CC(CC(C3)C1)C2 (centres undefined) was run?
A: 39.4 µM

Q: And the TGI [2]?
A: 16.1 µM

Q: What about the TGI [3] of the same compound?
A: 24.3 µM

Q: What about the TGI [4] of the same compound?
A: 32 µM

Q: And the TGI [5]?
A: 34.6 µM

Q: What about the TGI [6] of the same compound?
A: 28.9 µM

Q: What about the TGI [7] of the same compound?
A: 40.2 µM

Q: What about the TGI [8] of the same compound?
A: 27 µM

Q: What about the TGI [9] of the same compound?
A: 49.3 µM

Q: And the TGI [10]?
A: 28.9 µM

Q: And the TGI [11]?
A: 28.5 µM

Q: And the TGI [12]?
A: 49.6 µM

Q: What about the TGI [13] of the same compound?
A: 33.3 µM

Q: And the TGI [14]?
A: 46.4 µM

Q: What about the TGI [15] of the same compound?
A: 39.2 µM

Q: And the TGI [16]?
A: 22.1 µM

Q: What about the TGI [17] of the same compound?
A: 38.9 µM

Q: What about the TGI [18] of the same compound?
A: 33.5 µM

Q: What about the TGI [19] of the same compound?
A: 4.19 µM

Q: What does the source list for CN(/N=C\c1ccc2ccccc2c1)C1=NCCCCN1?
A: TGI [1]: > 100 µM; TGI [2]: 39.9 µM; TGI [3]: 31.2 µM; TGI [5]: > 100 µM; TGI [6]: 64.2 µM; TGI [7]: 46.8 µM; TGI [8]: > 100 µM; TGI [9]: 48.2 µM; TGI [10]: 48.6 µM; TGI [11]: 39.7 µM; TGI [12]: > 100 µM; TGI [13]: 56.5 µM; TGI [14]: 42.6 µM; TGI [15]: > 100 µM; TGI [16]: 32.8 µM; TGI [17]: > 100 µM; TGI [18]: 42.5 µM; TGI [19]: 28.7 µM; TGI [20]: 56.9 µM

Q: Which results are given for Nc1cccc(OCc2nc(N)nc(N)c2-c2ccc(Cl)cc2)c1?
A: TGI [1]: 79.5 µM; TGI [2]: 77.3 µM; TGI [3]: > 100 µM; TGI [4]: > 100 µM; TGI [5]: > 100 µM; TGI [6]: > 100 µM; TGI [7]: > 100 µM; TGI [8]: > 100 µM; TGI [9]: > 100 µM; TGI [11]: > 100 µM; TGI [12]: > 100 µM; TGI [13]: > 100 µM; TGI [14]: > 100 µM; TGI [15]: > 100 µM; TGI [16]: > 100 µM; TGI [17]: > 100 µM; TGI [18]: > 100 µM; TGI [19]: > 100 µM; TGI [20]: > 100 µM

Q: Which TGI [2] does the source give for COC(=O)CCCCC/C(=C\C(=O)C(Cl)(Cl)Cl)OC here?
A: 47.6 µM

Q: And the TGI [3]?
A: 71.3 µM

Q: And the TGI [4]?
A: > 100 µM

Q: What about the TGI [5] of the same compound?
A: 32.2 µM

Q: What about the TGI [6] of the same compound?
A: > 100 µM

Q: And the TGI [7]?
A: > 100 µM

Q: And the TGI [8]?
A: 70.4 µM

Q: And the TGI [9]?
A: 60.1 µM

Q: And the TGI [10]?
A: 44.4 µM

Q: And the TGI [11]?
A: 76.9 µM

Q: And the TGI [12]?
A: > 100 µM

Q: And the TGI [13]?
A: 86.9 µM

Q: What about the TGI [14] of the same compound?
A: 41.1 µM

Q: And the TGI [15]?
A: > 100 µM

Q: What about the TGI [16] of the same compound?
A: 68.5 µM

Q: And the TGI [17]?
A: 42.1 µM

Q: And the TGI [18]?
A: > 100 µM

Q: And the TGI [19]?
A: 44.9 µM

Q: What about the TGI [20] of the same compound?
A: 60.9 µM

Q: For Nc1c(C(=O)c2ccccc2)[nH]c(NCc2ccccc2)c1C(=S)Nc1ccccc1, which TGI [1] is on record?
A: > 100 µM

Q: And the TGI [2]?
A: > 100 µM

Q: What about the TGI [3] of the same compound?
A: > 100 µM

Q: And the TGI [4]?
A: > 100 µM

Q: And the TGI [5]?
A: > 100 µM

Q: What about the TGI [6] of the same compound?
A: > 100 µM

Q: And the TGI [7]?
A: > 100 µM

Q: What about the TGI [8] of the same compound?
A: > 100 µM

Q: What about the TGI [9] of the same compound?
A: > 100 µM

Q: What about the TGI [10] of the same compound?
A: > 100 µM

Q: And the TGI [11]?
A: > 100 µM

Q: And the TGI [12]?
A: > 100 µM

Q: What about the TGI [13] of the same compound?
A: > 100 µM

Q: And the TGI [14]?
A: > 100 µM

Q: What about the TGI [15] of the same compound?
A: > 100 µM

Q: And the TGI [16]?
A: > 100 µM

Q: What about the TGI [17] of the same compound?
A: > 100 µM

Q: And the TGI [18]?
A: > 100 µM

Q: What about the TGI [19] of the same compound?
A: > 100 µM

Q: With CC(C)(C)/C(O)=C\c1nc2cc(C(F)(F)F)ccc2[nH]c1=O as the compound, how does the TGI [1] read?
A: > 100 µM

Q: What about the TGI [2] of the same compound?
A: 19.8 µM

Q: What about the TGI [3] of the same compound?
A: > 100 µM

Q: And the TGI [4]?
A: > 100 µM

Q: What about the TGI [5] of the same compound?
A: > 100 µM

Q: And the TGI [6]?
A: > 100 µM

Q: What about the TGI [7] of the same compound?
A: > 100 µM

Q: And the TGI [8]?
A: > 100 µM

Q: What about the TGI [12] of the same compound?
A: > 100 µM

Q: And the TGI [13]?
A: > 100 µM

Q: What about the TGI [14] of the same compound?
A: > 100 µM

Q: And the TGI [15]?
A: > 100 µM

Q: And the TGI [16]?
A: > 100 µM

Q: What about the TGI [17] of the same compound?
A: > 100 µM

Q: What about the TGI [18] of the same compound?
A: > 100 µM

Q: And the TGI [19]?
A: > 100 µM

Q: What about the TGI [20] of the same compound?
A: > 100 µM
